Reference: US5103018A, “Mitomycin derivatives” (Kyowa Hakko Kogyo Kabushiki Kaisha, priority 1986, dated 1992)
≈ marks a conversion by molar mass, not a printed value.

Columns and labels:
Sarcoma 180 solid tumour = experiment: animal or person; format: in vivo, mice (ddy strain); details: for ED50: Mus musculus, Sarcoma-180, ip, 168 h, read-out: ED50 ip
Description: (§1) Certain compounds were selected from Compounds I. The following Table 4 indicates anti-tumour activity against Sarcoma 180 solid tumour (ED50), acute toxicity (LD50) and effects on the peripheral leucocytes (WBC4000) of each compound.
(1) Effect against Sarcoma 180 solid tumour:
5×10^6 cells of Sarcoma 180 solid tumour cells were abdominally implanted into male mice of ddy strain. 7 days after this, ascites cells were sampled. The cells were washed once with a sterilized physiological solution of sodium chloride and were used to prepare a cell suspension containing 5×10^7 cells per ml. On each occasion, 0.1 ml of the cell suspension was subcutaneously implanted into the right armpit of a male mouse (ddy strain; body weight 20±2 g). 24 hours after the implantation of the tumour cells, the test compound which was dissolved in a physiological solution of sodium chloride with or without addition of Tween 80 was abdominally administered to each mouse of a group consisting of 5 animals at a does of 0.1-0.2 ml. The anti-tumour activity was determined as follows:
7 days after the implantation, the major axis (a) and the minor axis (b) of the tumour were measured to calculate a value of "a×b^2 /2" which corresponds to the volume of the tumour. The anti-tumour activity was expressed by T/C viz. the ratio of the volume of the tumours (T) of the group of animals administered with the test compound to the corresponding volume of tumours (C) of the untreated animals.
(2) Determination of ED50 :
The term ED50 denotes the administered amount needed for reducing the volume of Sarcoma 180 solid tumours in the animals to 50% on the basis of the corresponding volume of Sarcoma 180 solid tumours in control (untreated) animals.
On graph paper, T/C was indicated by an arithmetic scale on the longitudinal axis and the administered amount of test compound was indicated by a logarithmic scale on the lateral axis.

in vivo = format: in vivo, mice (ddy strain); details: mouse, in vivo, ip; read-out: (WBC4000/ED50)* = (WBC4000/ED50)/[(WBC4000/ED50) of MMC1]
Description: as §1
(4) Effect upon the number of the peripheral leucocytes:
Sarcoma 180 solid tumour cells (5×10^6) were subcutaneously implanted into the right armpit of each mouse (body weight 20±2 g) of a group consisting of 5 male mice (ddy strain). 24 hours after implantation,a test compound was abdominally administered to each mouse. 4 days later, blood (each 0.02 ml) was collected from the suborbital plexus vein of each tumour-carrying mouse. The collected sample of blood was dispersed in 9.98 ml of Cell-kit Seven solution. One drop of saponin solution was added to the sample to dissolve erythrocytes and then a microcell counter was used to measure the number of leucocytes. On graph paper, the number of leucocytes was indicated on the y-axis by an arithmetic scale and the does of the test compound was indicated on the x-axis by a logarithmic scale.
The relationship between the number of peripheral leucocytes and the dosage of the test compound was plotted to obtain WBC4000 viz. the dosage corresponding to […] per mm^3 (about half of the number of leucocytes of normal mice).

Acute toxicity = format: in vivo, mice (ddy); details: mouse, in vivo, ip; for LD50 at 336 h: ddy mice, single i.p., 14 days, Behren Korber's method; for selectivity ratio: read-out: (C.I.)* = (LD50/ED50)/[(LD50/ED50) of MMC1]
Description: as §1
Each animal of the test group consisting of 5 ddy mice was once administered (i.p.) with a test compound. […] The LD50 was determined by Behren Korber's method.

[1] = tested on: Streptococcus faecalis ATCC 10541; experiment: Minimum inhibitory concentration, agar dilution method, SF; format: cell-based; details: Enterococcus faecalis, ATCC10541, pH 7, read-out: minimum inhibitory concentration, SF
Description: (§2) Certain Compounds I were selected. Table 3 indicates their anti-bacterial activities in terms of their minimum inhibitory concentration (μg/ml), determined by the agar dilution method effected at a pH of 7.0. In this table, the microorganisms used are abbreviated as follows:
SF: Streptococcus faecalis ATCC 10541

[2] = tested on: Staphylococcus aureus ATCC 6583P; experiment: Minimum inhibitory concentration, agar dilution method, SA; format: cell-based; details: Staphylococcus aureus, ATCC6583P, pH 7, read-out: minimum inhibitory concentration, SA
Description: as §2
SA: Staphylococcus aureus ATCC 6583P

Molecule | ED50 (Sarcoma 180 solid tumour) | selectivity ratio (in vivo) | LD50 at 336 h (Acute toxicity) | selectivity ratio (Acute toxicity) | ED50 ip (Sarcoma 180 solid tumour; ddy mice, i.p. 24 h after implantation, 50% reduction of tumour volume at day 7) | MIC [1] | MIC [2]
CO[C@@]12[C@H](COC(N)=O)C3=C(C(=O)C(C)=C(NCCSSCCNC(=O)C(F)(F)F)C3=O)N1C[C@@H]1N[C@@H]12 [Compound 19, 7-N-[2-[(2-trifluoroacetamidoethyl)dithio]ethyl]mitomycin C] | 8.7 mg/kg | > 0.96 | 9.4 mg/kg | 0.51 | – | – | –
CC1=C(NCCSSCc2cn([C@H]3C[C@H](O)[C@@H](CO)O3)c(=O)[nH]c2=O)C(=O)C2=C(C1=O)N1C[C@H]3[C@H](N3C)[C@]1(O)[C@H]2COC(N)=O (stereo partly drawn) [Compound 40, 7-N-[2-[[(2'-deoxyuridin-5-yl)methyl]dithio]ethyl]mitomycin D] | 104 mg/kg | 0.95 | ≥ 200 mg/kg | 1.22 | – | – | –
CC1=C(NCCSSCCNC(=O)C[C@H](N)C(=O)O)C(=O)C2=C(C1=O)N1C[C@H]3[C@H](N3C)[C@]1(O)[C@H]2COC(N)=O (stereo partly drawn) [Compound 10, 7-N-[2-[[2-(N^4 -L-asparagino)ethyl]dithio]ethyl]mitomycin D] | 13 mg/kg | 2.5 | 75 mg/kg | 2.19 | – | – | –
CC1=C(NCCSSCCC(=O)N[C@@H](CCCN)C(=O)O)C(=O)C2=C(C1=O)N1C[C@H]3[C@H](N3C)[C@]1(O)[C@H]2COC(N)=O (stereo partly drawn) [Compound 24, 7-N-[2-[[2-[[(1S)-4-amino-1-carboxybutyl]carbamoyl]ethyl]dithio]ethyl]mitomycin D] | 31.2 mg/kg | 2.02 | > 100 mg/kg | > 1.53 | – | – | –
CO[C@@]12[C@H](COC(N)=O)C3=C(C(=O)C(C)=C(NCCSSCCS(=O)(=O)O)C3=O)N1C[C@@H]1N[C@@H]12 [Compound 36, 7-N-[2-[(2-sulfoethyl)dithio]ethyl]mitomycin C] | 7 mg/kg | – | – | – | – | – | –
7-N-[2-[[2-[[(1S)-5-amino-1-carboxypentyl]carbamoyl]ethyl]dithio]ethyl]mitomycin C [Compound 23] | – | – | – | – | 6.2 mg/kg | – | –
CO[C@@]12[C@H](COC(N)=O)C3=C(C(=O)C(C)=C(NCCSSCCC(=O)NCCc4ccc(O)c(O)c4)C3=O)N1C[C@@H]1N[C@@H]12 [Compound 31, 7-N-[2-[[2-[[2-(3,4-dihydroxyphenyl)ethyl]carbamoyl]ethyl]dithio]ethyl]mitomycin C] | 7.1 mg/kg | 2.28 | 26.3 mg/kg | 1.15 | – | – | –
CO[C@@]12[C@H](COC(N)=O)C3=C(C(=O)C(C)=C(NCCSSCCC(=O)N[C@@H](CCCN)C(=O)O)C3=O)N1C[C@@H]1N[C@@H]12 [Compound 22, 7-N-[2-[[2-[[(1S)-4-amino-1-carboxybutyl]carbamoyl]ethyl]dithio]ethyl]mitomycin C] | 5 mg/kg | – | – | – | – | – | –
CO[C@@]12[C@H](COC(N)=O)C3=C(C(=O)C(C)=C(NCCSSCCNC(=O)CCC(=O)Oc4c(C)c(C)c5c(c4C)CC[C@@](C)(CCC[C@H](C)CCC[C@H](C)CCCC(C)C)O5)C3=O)N1C[C@@H]1N[C@@H]12 [Compound 16] | 95.9 mg/kg | 1.2 | > 100 mg/kg | > 0.37 | – | – | –
CO[C@@]12[C@H](COC(N)=O)C3=C(C(=O)C(C)=C(NCCSSCCOC(=O)/C=C(C)/C=C/C=C(C)/C=C/C4=C(C)CCCC4(C)C)C3=O)N1C[C@@H]1N[C@@H]12 [Compound 35, 7-N-[2-[[2-(retinoyloxy)ethyl]dithio]ethyl]mitomycin C] | – | – | – | – | – | 10 µg/mL (≈ 13.3 µM) | 5 µg/mL (≈ 6.64 µM)
CC1=C(NCCSSCCNC(=O)CC[C@@H](N)C(=O)O)C(=O)C2=C(C1=O)N1C[C@H]3[C@H](N3C)[C@]1(O)[C@H]2COC(N)=O (stereo partly drawn) [Compound 11, 7-N-[2-[[2-(N^5 -D-glutamino)ethyl]dithio]ethyl]mitomycin D] | 16.9 mg/kg | 1.64 | 75 mg/kg | 1.59 | – | – | –
CC1=C(NCCSSCc2c[nH]c(=O)[nH]c2=O)C(=O)C2=C(C1=O)N1C[C@H]3[C@H](N3C)[C@]1(O)[C@H]2COC(N)=O (stereo partly drawn) [Compound 38, 7-N-[2-[[(2,4-dioxopyrimidin-5-yl)methyl]dithio]ethyl]mitomycin D] | 24.5 mg/kg | > 8.71 | > 150 mg/kg | > 2.26 | – | – | –
CCOC(=O)CNC(=O)CCSSCCNC1=C(C)C(=O)C2=C(C1=O)[C@@H](COC(N)=O)[C@@]1(OC)[C@H]3N[C@H]3CN21 [Compound 29, 7-N-[2-[[2-[[(ethoxycarbonyl)methyl]carbamoyl]ethyl]dithio]ethyl]mitomycin C] | 9.4 mg/kg | 2.9 | 33.8 mg/kg | 1.77 | – | – | –
CC1=C(NCCSSCCNC(=O)C(F)(F)F)C(=O)C2=C(C1=O)N1C[C@H]3[C@H](N3C)[C@]1(O)[C@H]2COC(N)=O (stereo partly drawn) [Compound 20, 7-N-[2-[(2-trifluoroacetamidoethyl)dithio]ethyl]mitomycin D] | 11.6 mg/kg | 4.4 | 30 mg/kg | 0.93 | – | – | –
CO[C@@]12[C@H](COC(N)=O)C3=C(C(=O)C(C)=C(NCCSSCCNC(=O)[C@@H]4CCCN4)C3=O)N1C[C@@H]1N[C@@H]12 [Compound 13, 7-N-[2-[[2-(L-prolylamino)ethyl]dithio]ethyl]mitomycin C] | 12.2 mg/kg | 2.3 | 30 mg/kg | 1.17 | – | – | –
CC1=C(NCCSSCCNC(=O)[C@@H]2CCC(=O)N2)C(=O)C2=C(C1=O)N1C[C@H]3[C@H](N3C)[C@]1(O)[C@H]2COC(N)=O (stereo partly drawn) [Compound 12, 7-N-[2-[[2-(L-pyroglutamylamino)ethyl]dithio]ethyl]mitomycin D] | 18.4 mg/kg | 5.57 | 75 mg/kg | 1.8 | – | – | –
CCOC(=O)CNC(=O)C(C)SSCCNC1=C(C)C(=O)C2=C(C1=O)[C@@H](COC(N)=O)[C@@]1(OC)[C@H]3N[C@H]3CN21 (stereo partly drawn) [Compound 30, 7-N-[2-[[1-[[(ethoxycarbonyl)methyl]carbamoyl]ethyl]dithio]ethyl]mitomycin C] | 10.3 mg/kg | – | – | – | – | – | –
CO[C@@]12[C@H](COC(N)=O)C3=C(C(=O)C(C)=C(NCCSSCc4c[nH]c(=O)[nH]c4=O)C3=O)N1C[C@@H]1N[C@@H]12 [Compound 37, 7-N-[2-[[(2,4-dioxopyrimidin-5-yl)methyl]dithio]ethyl]mitomycin C] | 16.4 mg/kg | – | – | – | – | – | –
CC1=C(NCCSSCCC(=O)N[C@@H](CCCCN)C(=O)O)C(=O)C2=C(C1=O)N1C[C@H]3[C@H](N3C)[C@]1(O)[C@H]2COC(N)=O (stereo partly drawn) [Compound 25, 7-N-[2-[[2-[[(1S)-5-amino-1-carboxypentyl]carbamoyl]ethyl]dithio]ethyl]mitomycin D] | 46.6 mg/kg | 1.59 | > 100 mg/kg | > 1.02 | – | – | –
CC1=C(NCCSSCCNC=O)C(=O)C2=C(C1=O)N1C[C@H]3[C@H](N3C)[C@]1(O)[C@H]2COC(N)=O (stereo partly drawn) [Compound 18, 7-N-[2-[(2-formamidoethyl)dithio]ethyl]mitomycin D] | 10.6 mg/kg | 3.89 | 52.5 mg/kg | 1.94 | – | – | –
